# Test results as given in patent US20240101570A1 (AMGEN INC., priority 2020, published 2024).
# Legend:
# HCT116 MTAP null cells = assay: HCT116 MTAP null cell proliferation / viability (CellTiter-Glo, 6 days); assay type: cell-based; settings: HCT116-MTAP null, 144 h, HCT116 MTAP null cells, 6 days, CellTiter-Glo; read-out: HCT-116 MTAP null IC50
# Outline: (§1)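 IC50 values derive from sigmoidal dose-response fits, some with Hill slope fixed at −1 and top constrained to 100%, others from 4-parameter logistic models. They reflect CellTiter-Glo viability after 6 days of compound exposure at up to 10 or 50 μM.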
# HCT116 WT cells = assay: HCT116 WT cell proliferation / viability (CellTiter-Glo, 6 days); assay type: cell-based; settings: Homo sapiens, HCT-116, 144 h, HCT116 WT cells, 6 days, CellTiter-Glo; read-out: HCT-116 WT IC50
# Outline: as §1
IC50 (HCT116 MTAP null cells),IC50 (HCT116 WT cells),Structure (SMILES)
11 nM,231 nM,"CC(C)CN(Cc1ccc(C(F)(F)F)cn1)C(=O)c1ccc2nc(N)c3ccncc3c2c1 [Example 632, 5-amino-N-(2-methylpropyl)-N-((5-(trifluoromethyl)-2-pyridinyl)methyl)benzo[c][2,6]naphthyridine-9-carboxamide]"
13 nM,71 nM,"C[C@H](c1ncccn1)N(Cc1ccc(C(F)(F)F)cn1)C(=O)c1ccc2nc(N)c3ccncc3c2c1 [Example 633, 5-amino-N-((1R)-1-(2-pyrimidinyl)ethyl)-N-((5-(trifluoromethyl)-2-pyridinyl)methyl)benzo[c][2,6]naphthyridine-9-carboxamide]"
73 nM,1210 nM,"Nc1nc2ccc(C(=O)N(Cc3ccc(C(F)(F)F)cn3)Cc3ncccc3F)cc2c2ccsc12 [Example 635, 4-amino-N-((3-fluoro-2-pyridinyl)methyl)-N-((5-(trifluoromethyl)-2-pyridinyl)methyl)thieno[2,3-c]quinoline-8-carboxamide]"
149 nM,2990 nM,"Nc1nc2ccc(C(=O)N(Cc3ccc(C(F)(F)F)cn3)Cc3ncccn3)cc2c2ccsc12 [Example 636, 4-amino-N-(2-pyrimidinylmethyl)-N-((5-(trifluoromethyl)-2-pyridinyl)methyl)thieno[2,3-c]quinoline-8-carboxamide]"
212 nM,3220 nM,"CC(C)CN(Cc1ccc(C(F)(F)F)cn1)C(=O)c1ccc2nc(N)c3sccc3c2c1 [Example 637, 4-amino-N-(2-methylpropyl)-N-((5-(trifluoromethyl)-2-pyridinyl)methyl)thieno[2,3-c]quinoline-8-carboxamide]"
22 nM,378 nM,"C[C@H](c1ncccn1)N(Cc1ccc(C(F)(F)F)cn1)C(=O)c1ccc2nc(N)c3ncncc3c2c1 [Example 638, 5-amino-N-((1R)-1-(2-pyrimidinyl)ethyl)-N-((5-(trifluoromethyl)-2-pyridinyl)methyl)pyrimido[4,5-c]quinoline-9-carboxamide]"
16 nM,242 nM,"COC[C@H](C1CC1)N(Cc1ccc(N2CCOCC2)nn1)C(=O)c1ccc2nc(N)c3c(c2c1)COC3 [Example 641, 4-amino-N-((1S)-1-cyclopropyl-2-methoxyethyl)-N-((6-(4-morpholinyl)-3-pyridazinyl)methyl)-1,3-dihydrofuro[3,4-c]quinoline-8-carboxamide]"
41 nM,1300 nM,"CCOc1ccc(CN(CC(C)C)C(=O)c2ccc3nc(N)c4c(c3c2)COC4)nn1 [Example 642, 4-amino-N-((6-ethoxy-3-pyridazinyl)methyl)-N-(2-methylpropyl)-1,3-dihydrofuro[3,4-c]quinoline-8-carboxamide]"
178 nM,1620 nM,"COC[C@@H](C)N(Cc1ccc(Br)nn1)C(=O)c1ccc2nc(N)c3sccc3c2c1 [Example 643, 4-amino-N-((6-bromo-3-pyridazinyl)methyl)-N-((2R)-1-methoxy-2-propanyl)thieno[2,3-c]quinoline-8-carboxamide]"
2790 nM,> 10000 nM,"COCC(C)(C)N(Cc1ccc(Br)nn1)C(=O)c1ccc2nc(N)c3c(c2c1)COC3 [Example 644, 4-amino-N-((6-bromo-3-pyridazinyl)methyl)-N-(1-methoxy-2-methyl-2-propanyl)-1,3-dihydrofuro[3,4-c]quinoline-8-carboxamide]"
≥ 50000 nM,> 50000 nM,"COCC(C)(C)N(Cc1ccc(Br)nn1)C(=O)c1cc2c3c(c(N)nc2cn1)COC3 [Example 645, 4-amino-N-((6-bromo-3-pyridazinyl)methyl)-N-(1-methoxy-2-methyl-2-propanyl)-1,3-dihydrofuro[3,4-c][1,7]naphthyridine-8-carboxamide]"
50 nM,1390 nM,"Nc1nc2cnc(C(=O)N(Cc3ccc(C(F)(F)F)cn3)CC3CC3)cc2c2c1COC2 [Example 652, 4-amino-N-(cyclopropylmethyl)-N-((5-(trifluoromethyl)pyridin-2-yl)methyl)-1,3-dihydrofuro[3,4-c][1,7]naphthyridine-8-carboxamide]"
8 nM,73 nM,"C[C@H](c1ncccn1)N(Cc1ccc(C(F)(F)F)cn1)C(=O)c1ccc2nc(N)c3c(c2c1)COC3 [Example 653, 4-amino-N-((1R)-1-(2-pyrimidinyl)ethyl)-N-((5-(trifluoromethyl)-2-pyridinyl)methyl)-1,3-dihydrofuro[3,4-c]quinoline-8-carboxamide]"
9 nM,171 nM,"C[C@H](c1ncccn1)N(Cc1ccc(C(F)(F)F)cn1)C(=O)c1ccc2nc(N)c3c(c2c1)CCCC3 [Example 654, 6-amino-N-((1R)-1-(2-pyrimidinyl)ethyl)-N-((5-(trifluoromethyl)-2-pyridinyl)methyl)-7,8,9,10-tetrahydro-2-phenanthridinecarboxamide]"
16 nM,294 nM,"C[C@H](c1ncccn1)N(Cc1ccc(C(F)(F)F)cn1)C(=O)c1cc2c3c(c(N)nc2cc1Cl)COC3 [Example 655, 4-amino-7-chloro-N-((1R)-1-(2-pyrimidinyl)ethyl)-N-((5-(trifluoromethyl)-2-pyridinyl)methyl)-1,3-dihydrofuro[3,4-c]quinoline-8-carboxamide]"
19 nM,1260 nM,"Nc1nc2cc(Cl)c(C(=O)N(Cc3ccc(C(F)(F)F)cn3)C3CC3)cc2c2c1COC2 [Example 656, 4-amino-7-chloro-N-cyclopropyl-N-((5-(trifluoromethyl)-2-pyridinyl)methyl)-1,3-dihydrofuro[3,4-c]quinoline-8-carboxamide]"
13 nM,196 nM,"C[C@H](c1ncccn1)N(Cc1ccc(Br)nn1)C(=O)c1ccc2nc(N)c3c(c2c1)COC3 [Example 657, 4-amino-N-((6-bromo-3-pyridazinyl)methyl)-N-((1R)-1-(2-pyrimidinyl)ethyl)-1,3-dihydrofuro[3,4-c]quinoline-8-carboxamide]"
6 nM,71 nM,"C[C@H](c1ncccn1)N(Cc1ccc(Br)cn1)C(=O)c1ccc2nc(N)c3c(c2c1)COC3 [Example 658, 4-amino-N-((5-bromo-2-pyridinyl)methyl)-N-((1R)-1-(2-pyrimidinyl)ethyl)-1,3-dihydrofuro[3,4-c]quinoline-8-carboxamide]"
14 nM,378 nM,"C[C@H](c1ncccn1)N(Cc1ccc(C#N)cn1)C(=O)c1ccc2nc(N)c3c(c2c1)COC3 [Example 659, 4-amino-N-((5-cyano-2-pyridinyl)methyl)-N-((1R)-1-(2-pyrimidinyl)ethyl)-1,3-dihydrofuro[3,4-c]quinoline-8-carboxamide]"
354 nM,> 10000 nM,"Nc1nc2ccc(C(=O)N(Cc3ccc(C(F)(F)F)nn3)C3CC(F)(F)C3)cc2c2c1COC2 [Example 660, 4-amino-N-(3,3-difluorocyclobutyl)-N-((6-(trifluoromethyl)-3-pyridazinyl)methyl)-1,3-dihydrofuro[3,4-c]quinoline-8-carboxamide]"
303 nM,26200 nM,"Nc1nc2ccc(C(=O)N(Cc3ccc(C(F)(F)F)nn3)C3CC3)cc2c2c1COC2 [Example 661, 4-amino-N-cyclopropyl-N-((6-(trifluoromethyl)-3-pyridazinyl)methyl)-1,3-dihydrofuro[3,4-c]quinoline-8-carboxamide]"
29 nM,290 nM,"C[C@H](c1ncn(C)n1)N(Cc1ccc(C(F)F)cn1)C(=O)c1ccc2nc(N)c3c(c2c1)COC3 [Example 662, 4-amino-N-((5-(difluoromethyl)-2-pyridinyl)methyl)-N-((1R)-1-(1-methyl-1H-1,2,4-triazol-3-yl)ethyl)-1,3-dihydrofuro[3,4-c]quinoline-8-carboxamide]"
35 nM,1020 nM,"Nc1nc2ccc(C(=O)N(Cc3ccc(OC(F)(F)F)cn3)CC3CC3)cc2c2c1COC2 [Example 663, 4-amino-N-(cyclopropylmethyl)-N-((5-(trifluoromethoxy)-2-pyridinyl)methyl)-1,3-dihydrofuro[3,4-c]quinoline-8-carboxamide]"
38 nM,1390 nM,"CC(C)CN(Cc1ccc(C(F)(F)F)nn1)C(=O)c1ccc2nc(N)c3c(c2c1)COC3 [Example 664, 4-amino-N-(2-methylpropyl)-N-((6-(trifluoromethyl)-3-pyridazinyl)methyl)-1,3-dihydrofuro[3,4-c]quinoline-8-carboxamide]"
37 nM,1250 nM,"CC(C)CN(Cc1ccc(Br)nn1)C(=O)c1ccc2nc(N)c3c(c2c1)COC3 [Example 665, 4-amino-N-((6-bromo-3-pyridazinyl)methyl)-N-(2-methylpropyl)-1,3-dihydrofuro[3,4-c]quinoline-8-carboxamide]"
687 nM,> 10000 nM,"C[C@@H](c1ncccn1)N(Cc1ccc(C#N)cn1)C(=O)c1ccc2nc(N)c3c(c2c1)COC3 [Example 666, 4-amino-N-((5-cyano-2-pyridinyl)methyl)-N-((1S)-1-(2-pyrimidinyl)ethyl)-1,3-dihydrofuro[3,4-c]quinoline-8-carboxamide]"
929 nM,7130 nM,"C[C@H](c1ncn(C)n1)N(Cc1ccc(C(F)F)cn1)C(=O)c1cc2c3c(c(N)nc2cn1)COC3 [Example 667, 4-amino-N-((5-(difluoromethyl)-2-pyridinyl)methyl)-N-((1R)-1-(1-methyl-1H-1,2,4-triazol-3-yl)ethyl)-1,3-dihydrofuro[3,4-c][1,7]naphthyridine-8-carboxamide]"
304 nM,> 10000 nM,"Nc1nc2cnc(C(=O)N(Cc3ccc(C(F)(F)F)nn3)C3CC(F)(F)C3)cc2c2c1COC2 [Example 668, 4-amino-N-(3,3-difluorocyclobutyl)-N-((6-(trifluoromethyl)-3-pyridazinyl)methyl)-1,3-dihydrofuro[3,4-c][1,7]naphthyridine-8-carboxamide]"
